# Read-outs that look alike come from different tables or passages of the source.
# Tests used:
# [1] = system: Pseudomonas aeruginosa (PRD-10); experiment: Minimum inhibitory concentration (MIC) in nutrient agar; assay type: cell-based, Pseudomonas aeruginosa ATCC 15442
# Procedure: (§1) The minimum inhibitory concentration (MIC) for the compounds listed in Table I is determined for 9 bacteria, using nutrient agar: and 7 yeast and fungi, using malt yeast agar. A one percent solution of the test compound is prepared in a mixture of acetone and water. Nutrient agar is prepared at pH 6.8, representing a neutral medium, and at pH 8.2, representing an alkaline medium. The nutrient agars are prepared by adding 23 g of nutrient agar to one-liter of deionized water. In addition, the alkaline medium is prepared by adjusting a 0.04M solution of N-[tris-(hydroxymethyl)methyl]-glycine buffered deionized water with concentrated sodium hydroxide to a pH of […]. Malt yeast agar is prepared by adding 3 g yeast extract and 45 g malt agar per liter of deionized water. The specific agar is dispensed in 30 ml aliquots into 25×200 mm test tubes, capped and autoclaved for 15 minutes at 115° C. The test tubes containing the agar are cooled in a water bath until the temperature of the agar is 48° C. Then, an appropriate amount of the one percent solution of the test compound is added (except in the controls where no compound is added) to the respective test tubes so that the final concentrations are 500, 250, 100, 50, 25, 10, 5, 2.5, 1.0 and zero parts per million of the test compound in the agar, thus having a known concentration of test compound dispersed therein. The contents of the test tubes are then transferred to respective petri plates. After drying for 24 hours, the petri plates containing nutrient agar are inoculated with bacteria and those containing malt yeast agar are inoculated with yeast and fungi.
# (§2) The inoculation with bacteria is accomplished by using the following procedure. Twenty-four hour-cultures of each of the bacteria are prepared by incubating the respective bacteria in tubes containing nutrient broth for 24 hours at 30° C. in a shaker. Dilutions of each of the 24 hour-cultures are made so that nine separate suspensions (one for each of the nine test bacteria) are made, each containing 10^8 colony forming units (CFU) per ml of suspension of a particular bacteria. Aliquots of 0.3 ml of each of the bacterial suspensions are used to fill the individual wells of Steer's Replicator. For each microbial suspension, 0.3 ml was used to fill three wells (i.e., three wells of 0.3 ml each) so that for the nine different bacteria, 27 wells are filled. The Steer's Replicator is then used to inoculate both the neutral and alkaline pH nutrient agar petri plates.
# (§3) The inoculated petri plates are incubated at 30° C. for 48 hours and then read to determine if the test compound which is incorporated into the agar prevented growth of the respective bacteria.
# (§4) Table II lists the bacteria, yeast and fungi used in the MIC test described above along with their respective American Type Culture Collection (ATCC) identification numbers.
# Proteus vulgaris (Pv) = experiment: as above; assay type: cell-based, Proteus vulgaris ATCC 881
# Procedure: as §1, §2, §3, §4
# [2] = system: Saccharomyces cerevisiae (Sc); experiment: Minimum inhibitory concentration (MIC) in malt yeast agar; assay type: cell-based, Saccharomyces cerevisiae ATCC 4105; conditions: read-out: Minimum Inhibitory Concentration, Sc
# Procedure: as §1
# (§5) The inoculation with the yeast and fungi is accomplished as follows. Cultures of yeast and fungi are incubated for seven days on malt yeast agar at 30° C. These cultures are used to prepare suspensions by the following procedure. A suspension of each organism is prepared by adding 10 ml of sterile saline and 10 microliters of octylphenoxy polyethoxy ethanol to the agar slant of yeast or fungi. The sterile saline/octylphenoxy polyethoxy ethanol solution is then agitated with a sterile swab to suspend the microorganism grown on the slant. Each resulting suspension is diluted into sterile saline (1 part suspension: 9 parts sterile saline). Aliquots of these dilutions are placed in individual wells of Steer's Replicator and petri plates inoculated as previously described. The petri plates are incubated at 30° C. and read after 48 hours for yeast and 72 hours for fungi.
# as §4
# Trichoderma viride (Tv) = experiment: as above; assay type: cell-based, Trichoderma viride ATCC 8678; conditions: read-out: Minimum Inhibitory Concentration, Tv
# Procedure: as §1, §5, §4
# [3] = system: Staphylococcus aureus (Sa); experiment: Minimum inhibitory concentration (MIC) in nutrient agar; assay type: cell-based, Staphylococcus aureus ATCC 6538
# Procedure: as §1, §2, §3, §4
# [4] = system: Salmonella choleraesuis (Sc); experiment: as above; assay type: cell-based, Salmonella choleraesuis ATCC 10708; conditions: Salmonella enterica
# Procedure: as §1, §2, §3, §4
# Fusarium oxysporum (Fo) = experiment: Minimum inhibitory concentration (MIC) in malt yeast agar; assay type: cell-based, Fusarium oxysporum ATCC 48112; conditions: read-out: Minimum Inhibitory Concentration, Fo
# Procedure: as §1, §5, §4
# [5] = system: Klebsiella pneumoniae (Kp); experiment: Minimum inhibitory concentration (MIC) in nutrient agar; assay type: cell-based, Klebsiella pneumoniae ATCC 8308
# Procedure: as §1, §2, §3, §4
# Candida albicans (Ca) = experiment: Minimum inhibitory concentration (MIC) in malt yeast agar; assay type: cell-based, Candida albicans ATCC 10231; conditions: malt yeast agar; 30° C.; 48 hours for yeast; read-out: Minimum Inhibitory Concentration, Ca
# Procedure: as §1, §5, §4
# [6] = system: Aureobasidium pullulan (Ap); experiment: as above; assay type: cell-based, Aureobasidium pullulan ATCC 16622; conditions: malt yeast agar; 30° C.; 48 hours for yeast and 72 hours for fungi; read-out: Minimum Inhibitory Concentration, Ap
# Procedure: as §1, §5, §4
# Bacillus subtilis (Bs) = experiment: Minimum inhibitory concentration (MIC) in nutrient agar; assay type: cell-based, Bacillus subtilis ATCC 8473; conditions: 30° C., 48 hours, read-out: Minimum Inhibitory Concentration, Bs
# Procedure: as §1, §2, §3, §4
# [7] = system: Pseudomonas aeruginosa (Pa); experiment: as above; assay type: cell-based, Pseudomonas aeruginosa ATCC 10145; conditions: 48 hours
# Procedure: as §1, §2, §3, §4
# [8] = system: Penicillium chrysogenum (Pc); experiment: Minimum inhibitory concentration (MIC) in malt yeast agar; assay type: cell-based, Penicillium chrysogenum ATCC 9480; conditions: read-out: Minimum Inhibitory Concentration, Pc
# Procedure: as §1, §5, §4
# Aspergillus niger (An) = experiment: as above; assay type: cell-based, Aspergillus niger ATCC 16404; conditions: malt yeast agar; 30° C.; 72 hours for fungi; read-out: Minimum Inhibitory Concentration, An
# Procedure: as §1, §5, §4
# Escherichia coli (Ec) = experiment: Minimum inhibitory concentration (MIC) in nutrient agar; assay type: cell-based, Escherichia coli ATCC 11229
# Procedure: as §1, §2, §3, §4
# [9] = system: Enterobacter aerogenes (Ea); experiment: as above; assay type: cell-based, Enterobacter aerogenes ATCC 13048; conditions: Klebsiella aerogenes
# Procedure: as §1, §2, §3, §4
# [10] = pH 6.8, nutrient agar, 30° C., 48 hours, read-out: Minimum Inhibitory Concentration, PRD
# [11] = pH 6.8, nutrient agar, 30° C., 48 hours, read-out: Minimum Inhibitory Concentration, Pv
# [12] = malt yeast agar, 30° C., 48 hours for yeast
# [13] = malt yeast agar, 30° C., 72 hours for fungi
# [14] = pH 8.2, nutrient agar, 30° C., 48 hours, read-out: Minimum Inhibitory Concentration, Sa
# [15] = pH 6.8, nutrient agar, 30° C., 48 hours, read-out: Minimum Inhibitory Concentration, Sc
# [16] = pH 6.8, nutrient agar, 30° C., 48 hours, read-out: Minimum Inhibitory Concentration, Kp
# [17] = 48 h, pH 8.2, read-out: Minimum Inhibitory Concentration, Ec
# [18] = pH 6.8, nutrient agar, 30° C., 48 hours, read-out: Minimum Inhibitory Concentration, Ec
# [19] = pH 6.8, nutrient agar, 30° C., 48 hours, read-out: Minimum Inhibitory Concentration, Ea
# [20] = 48 h, pH 6.8, read-out: Minimum Inhibitory Concentration, PRD
# [21] = 48 h, pH 8.2, read-out: Minimum Inhibitory Concentration, PRD
# [22] = 48 h, pH 6.8, read-out: Minimum Inhibitory Concentration, Pv
# [23] = 48 h, pH 8.2, read-out: Minimum Inhibitory Concentration, Pv
# [24] = pH 6.8, nutrient agar, 30° C., 48 hours, read-out: Minimum Inhibitory Concentration, Sa
# [25] = 48 h, pH 6.8, read-out: Minimum Inhibitory Concentration, Sc
# [26] = 48 h, pH 8.2, read-out: Minimum Inhibitory Concentration, Sc
# [27] = 48 h, pH 8.2, read-out: Minimum Inhibitory Concentration, Kp
# [28] = 48 h, pH 6.8, read-out: Minimum Inhibitory Concentration, Ec
# [29] = 48 h, pH 6.8, read-out: Minimum Inhibitory Concentration, Ea
# [30] = 48 h, pH 8.2, read-out: Minimum Inhibitory Concentration, Ea
# [31] = 48 h, pH 6.8, read-out: Minimum Inhibitory Concentration, Kp
SMILES,MIC (Proteus vulgaris (Pv); [11]) [µg/mL],"MIC [2, 12] [µg/mL]",MIC (Trichoderma viride (Tv); [13]) [µg/mL],"MIC [3, 14] [µg/mL]","MIC [4, 15] [µg/mL]",MIC (Candida albicans (Ca)) [µg/mL],MIC [6] [µg/mL],"MIC (Bacillus subtilis (Bs); pH 6.8, nutrient agar) [µg/mL]","MIC (Bacillus subtilis (Bs); pH 8.2, nutrient agar) [µg/mL]","MIC ([7]; pH 6.8, 30° C.) [µg/mL]","MIC ([7]; pH 8.2, 30° C.) [µg/mL]","MIC [8, 13] [µg/mL]",MIC (Aspergillus niger (An)) [µg/mL],MIC (Escherichia coli (Ec); [17]) [µg/mL],"MIC [1, 21] [µg/mL]",MIC (Proteus vulgaris (Pv); [23]) [µg/mL],"MIC [3, 24] [µg/mL]","MIC [4, 26] [µg/mL]","MIC [5, 27] [µg/mL]","MIC [9, 30] [µg/mL]",further results
"Cc1cc2nc3c(nc2cc1[N+](=O)[O-])SC(C#N)=C(C#N)S3 [F, 7-nitro-8-methyl-1,4-dithiino-(2,3-b)-quinoxaline-2,3-dicarbonitrile]",50,< 10,25,50,250,< 10,< 10,< 10,50,500,> 500,< 10,< 10,> 500,–,–,–,–,–,–,"MIC [1, 10]: > 500 µg/mL; MIC ([1]; pH 8.2, nutrient agar, 30° C., 48 hours, read-out: Minimum Inhibitory Concentration, PRD): > 500 µg/mL; MIC (Proteus vulgaris (Pv); pH 8.2, nutrient agar, 30° C., 48 hours, read-out: Minimum Inhibitory Concentration, Pv): > 500 µg/mL; MIC ([3]; 48 h, pH 6.8, read-out: Minimum Inhibitory Concentration, Sa): < 10 µg/mL; MIC ([4]; pH 8.2, nutrient agar, 30° C., 48 hours, read-out: Minimum Inhibitory Concentration, Sc): > 500 µg/mL; MIC (Fusarium oxysporum (Fo); [13]): < 10 µg/mL; MIC [5, 16]: 100 µg/mL; MIC ([5]; pH 8.2, nutrient agar, 30° C., 48 hours, read-out: Minimum Inhibitory Concentration, Kp): > 500 µg/mL; MIC (Escherichia coli (Ec); [18]): 250 µg/mL; MIC [9, 19]: 500 µg/mL; MIC ([9]; pH 8.2, nutrient agar, 30° C., 48 hours, read-out: Minimum Inhibitory Concentration, Ea): > 500 µg/mL"
"N#CC1=C(C#N)Sc2nc3cc([N+](=O)[O-])c(Cl)cc3nc2S1 [G, 7-chloro-8-nitro-1,4-dithiino-(2,3-b)-quinoxaline-2,3-dicarbonitrile]",–,–,–,50,–,25,25,250,100,> 500,> 500,–,25,> 500,> 500,> 500,25,> 500,> 500,> 500,"MIC [1, 20]: > 500 µg/mL; MIC (Proteus vulgaris (Pv); [22]): > 500 µg/mL; MIC ([2]; 48 h): 25 µg/mL; MIC (Trichoderma viride (Tv); 72 h): 100 µg/mL; MIC [4, 25]: > 500 µg/mL; MIC (Fusarium oxysporum (Fo); 72 h): 100 µg/mL; MIC [5, 16]: 500 µg/mL; MIC ([8]; 72 h): 100 µg/mL; MIC (Escherichia coli (Ec); [28]): > 500 µg/mL; MIC [9, 29]: > 500 µg/mL"
"N#CC1=C(C#N)Sc2nc3cc(C#N)ccc3nc2S1 [H, 7-cyano-1,4-dithiino-(2,3-b)-quinoxaline-2,3-dicarbonitrile]",–,< 10,–,50,–,25,< 10,< 10,50,> 500,> 500,< 10,25,> 500,> 500,> 500,25,> 500,> 500,> 500,"MIC [1, 20]: > 500 µg/mL; MIC (Proteus vulgaris (Pv); [22]): 500 µg/mL; MIC (Trichoderma viride (Tv); 72 h): 100 µg/mL; MIC [4, 25]: > 500 µg/mL; MIC (Fusarium oxysporum (Fo); 72 h): 50 µg/mL; MIC [5, 16]: 500 µg/mL; MIC (Escherichia coli (Ec); [28]): > 500 µg/mL; MIC [9, 29]: > 500 µg/mL"
"COC(=O)c1ccc2nc3c(nc2c1)SC(C#N)=C(C#N)S3 [I, 7-carbomethoxy-1,4-dithiino-(2,3-b)-quinoxaline-2,3-dicarbonitrile]",100,< 10,25,100,100,< 10,< 10,< 10,50,500,> 500,< 10,< 10,> 500,> 500,> 500,25,> 500,> 500,> 500,"MIC [1, 20]: 500 µg/mL; MIC (Fusarium oxysporum (Fo); [13]): < 10 µg/mL; MIC [5, 31]: 50 µg/mL; MIC (Escherichia coli (Ec); [18]): 100 µg/mL; MIC [9, 29]: > 500 µg/mL"
"N#CC1=C(C#N)Sc2nc3cc(C(F)(F)F)ccc3nc2S1 [K, 7-trifluoromethyl-1,4-dithiino-(2,3-b)-quinoxaline-2,3-dicarbonitrile]",50,< 10,25,100,50,< 10,< 10,< 10,100,–,> 500,25,25,> 500,> 500,> 500,25,> 500,> 500,> 500,"MIC [1, 10]: 250 µg/mL; MIC (Fusarium oxysporum (Fo); [13]): 25 µg/mL; MIC [5, 31]: 50 µg/mL; MIC (Escherichia coli (Ec); [28]): 50 µg/mL; MIC [9, 19]: 250 µg/mL"

# Reference: patent publication US5200409A, “Composition and use of substituted 1,3-dithiolo-and 1,4-dithiinoquinoxalines as an antimicrobial” (The Dow Chemical Company, priority 1992, dated 1993)
